Biological target: ARL3 (Homo sapiens, UniProt P36405)
Test: microscale thermophoresis (Monolith NT.[…])
Type: binding

Sequence of ARL3 (P36405 2-182): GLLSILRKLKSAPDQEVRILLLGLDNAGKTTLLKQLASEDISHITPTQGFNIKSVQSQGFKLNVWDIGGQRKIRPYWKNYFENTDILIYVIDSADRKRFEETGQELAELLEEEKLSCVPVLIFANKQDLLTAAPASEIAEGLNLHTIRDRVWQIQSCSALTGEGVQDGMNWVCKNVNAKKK

Cc1c(-c2ccc(N3CCc4cccc(C(=O)Nc5nc6ccccc6s5)c4C3)nc2C(=O)O)cnn1CC12CC3CC(CC(C3)C1)C2 [A-1331852]
Kd: 12 µM

Source: PMC12713097, “ARL3 Enhances ERα Stability via USP10 Deubiquitination to Promote Endocrine Resistance and Drive Mitochondrial Metabolic Reprogramming in HR+ Breast Cancer” (Advanced Science, 2025)
